Measured values as given in patent EP0619297B1, “Fungicides for the control of take-all desease of plants” (MONSANTO COMPANY, priority 1993, dated 1994).
Values after ≈ are worked out from the molar mass of the structure shown.

Test system: Gaeumannomyces graminis var. tritici (Ggt)
Test: In vitro assay: mycelial growth on minimal media agar plates (Percent Inhibition; IC50)
Assay type: cell-based
Conditions: 0.1 ppm in agar, 19 - 20 °C, 4 to 5 days, read-out: In vitro(ppm) 0.1, Percent Inhibition
Procedure: The test compounds (0.25 mL of an appropriate stock solution in acetone) are incorporated into 25 mL minimal media agar [prepared by autoclaving a solution of 17.5 g Czapek Dox broth (Difco), 7.5 g purified agar or Bacto-agar (Difco), and 500 mL distilled/deionized water, and then adding 50 µL of 1 mg/mL thiamine hydrochloride and 50 µL of 1 mg/mL biotin in 5% ethanol] and plates are prepared.
Each plate is inoculated by placing in a triangular shape three 4-mm plugs of Gaeumannomyces graminis var. tritici (Ggt) grown on the minimal media agar described above. The plates are incubated in the dark at 19 - 20 °C for 4 to 5 days. The growth of the fungus is measured as the diameter of the mycelial growth. The result is expressed as Percent Inhibition, calculated as [1 - [(mm growth on treated plate - 4)/(mm growth on control plate - 4)]] x 100.
To determine IC5O values, an in vitro assay was run on each compound at the concentrations of 1, 0.1, 0.01, 0.001, and 0.0001 ppm. The percent inhibition was calculated for each concentration using the equation described in the in vitro assay under the section on Biological Assays. Using the two ordered pairs of (concentration, % inhibition) that bracket 50% inhibition of fungal growth, the concentration for 50% inhibition is calculated from the following equation. IC50 = [(50-I2 )C1 + (I1 -50)C2 ]/(I1 -I2 ), [formula] where C1 = 10C2.

Compared with `CCCNC(=O)c1c(OC(CC)(CC)CC)ccc2ccccc12` [Example 34, N-propyl 2-[(1,1-diethylpropyl)oxy]-1-naphthamide], `CCN(CC)C(=O)c1c(OC(C)(CC)CC)ccc2ccccc12` [Example 30, N,N-diethyl 2-[(1,1-diethylethyl)oxy]-1-naphthamide] is lower in inhibition at 0.1 ppm: 95% for the first, 91% for the second.

`C=CCNC(=O)c1c(OC(C)(C)CC)ccc2ccccc12` [Example 27, N-allyl 2-[(1,1-dimethylpropyl)oxy]-1-naphthamide] and `C=CCNC(=O)c1c(OC2(C)CCCC2)ccc2ccccc12` [Example 37, N-allyl 2-[(1-methyl-1-cyclopentyl)oxy]-1-naphthamide] are the same in inhibition at 0.1 ppm: 93% for the first, 93% for the second.

Same assay, conditions: 1 ppm in agar, 19 - 20 °C, 4 to 5 days, read-out: In vitro(ppm) 1, Percent Inhibition

Going from `CCCNC(=O)c1c(OC(CC)(CC)CC)ccc2ccccc12` [Example 34, N-propyl 2-[(1,1-diethylpropyl)oxy]-1-naphthamide] to `CCN(CC)C(=O)c1c(OC(C)(CC)CC)ccc2ccccc12` [Example 30, N,N-diethyl 2-[(1,1-diethylethyl)oxy]-1-naphthamide], the inhibition at 1 ppm rises from 95% to 96%.

`C=CCNC(=O)c1c(OC(C)(C)CC)ccc2ccccc12` [Example 27, N-allyl 2-[(1,1-dimethylpropyl)oxy]-1-naphthamide] and `C=CCNC(=O)c1c(OC2(C)CCCC2)ccc2ccccc12` [Example 37, N-allyl 2-[(1-methyl-1-cyclopentyl)oxy]-1-naphthamide] are the same in inhibition at 1 ppm: 98% for the first, 98% for the second.

Same assay, conditions: 10 ppm in agar, 19 - 20 °C, 4 to 5 days, read-out: In vitro(ppm) 10, Percent Inhibition

First: CCCNC(=O)c1c(OC(CC)(CC)CC)ccc2ccccc12 [Example 34, N-propyl 2-[(1,1-diethylpropyl)oxy]-1-naphthamide]
Second: CCN(CC)C(=O)c1c(OC(C)(CC)CC)ccc2ccccc12 [Example 30, N,N-diethyl 2-[(1,1-diethylethyl)oxy]-1-naphthamide]
The inhibition at 10 ppm of the first is lower: 95% for the first, 96% for the second.

`C=CCNC(=O)c1c(OC(C)(C)CC)ccc2ccccc12` [Example 27, N-allyl 2-[(1,1-dimethylpropyl)oxy]-1-naphthamide] and `C=CCNC(=O)c1c(OC2(C)CCCC2)ccc2ccccc12` [Example 37, N-allyl 2-[(1-methyl-1-cyclopentyl)oxy]-1-naphthamide] are the same in inhibition at 10 ppm: 98% for the first, 98% for the second.

Same assay, conditions: interpolated from percent inhibition at 1, 0.1, 0.01, 0.001 and 0.0001 ppm

`CCCNC(=O)c1c(OC(CC)(CC)CC)ccc2ccccc12` [Example 34, N-propyl 2-[(1,1-diethylpropyl)oxy]-1-naphthamide] and `CCN(CC)C(=O)c1c(OC(C)(CC)CC)ccc2ccccc12` [Example 30, N,N-diethyl 2-[(1,1-diethylethyl)oxy]-1-naphthamide] are within 1.5-fold of each other in IC50: 6.62 ng/mL (≈ 0.0202 µM) for the first, 7.43 ng/mL (≈ 0.0227 µM) for the second.

`C=CCNC(=O)c1c(OC(C)(C)CC)ccc2ccccc12` [Example 27, N-allyl 2-[(1,1-dimethylpropyl)oxy]-1-naphthamide] and `C=CCNC(=O)c1c(OC2(C)CCCC2)ccc2ccccc12` [Example 37, N-allyl 2-[(1-methyl-1-cyclopentyl)oxy]-1-naphthamide] are within 1.5-fold of each other in IC50: 8.44 ng/mL (≈ 0.0284 µM) for the first, 7.43 ng/mL (≈ 0.024 µM) for the second.

Test system: Ggt
Test: In vivo assay: control of Ggt on wheat in 3-inch pots with infested soil, rated after four weeks;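 as to In vivo(ppm) 0.1, percent disease control: rate is mg active ingredient per pot in 3 mL solution not ppm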;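 as to In vivo(ppm) 0.5, percent disease control: rate is mg active ingredient per pot in 3 mL solution not ppm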
Design: species or system Gaeumannomyces graminis var. tritici
Conditions: Gaeumannomyces graminis, 672 h; rate 0.02mg/pot; wheat, soil infested with Ggt, after four weeks; read-out: In vivo(ppm) 0.02mg/pot, percent disease control
Procedure: Compounds are tested for control of Ggt on 'Bergen' or 'Anza' varieties of wheat grown in 3-inch square pots containing soil infested with Ggt. The infestation is accomplished by mixing the soil with an inoculum prepared by growing Ggt on 1/4 strength potato dextrose agar (4.875 g potato dextrose agar, 5.0 g Bacto agar, 500 mL distilled, deionized water) in plates and using plugs from the plates to infest sterile oats (400 cc whole oats, 350 mL deionized water, autoclaved). After a one-month incubation period at room temperature, the oats are dried and mixed with the soil at 4% v/v. Four wheat seeds are placed on top of the soil in each pot. […] Five pots are used for each treatment level and the controls, which are untreated, inoculated and non-inoculated pots. After one hour drying time, the seeds are covered with more of the appropriate soil and a layer of vermiculite. The pots are placed in a growth chamber and watered each day. After four weeks, each pot is evaluated for evidence of disease by examination of the seminal roots of each plant under a dissecting microscope. A 0 to 5 rating scale having the following meanings is used: • 0 = no runner hyphae or lesions present • 1 = runner hyphae and a few small lesions present on <10% of root system • 2 = runner hyphae and small lesions present on 10 - 25% of root system • 3 = runner hyphae and lesions present on 25 - 50% of root system • 4 = runner hyphae and many, large, coalescing lesions on >50% of root system • 5 = root system and culm completely inundated with lesions and runner hyphae
From each set of five replicates a high or low score may be eliminated to assure the best representative scores are used to calculate a replicate mean by averaging the remaining scores. This mean score is then compared to the untreated control score and a percent disease control is calculated.

Compared with `CCCNC(=O)c1c(OC(CC)(CC)CC)ccc2ccccc12` [Example 34, N-propyl 2-[(1,1-diethylpropyl)oxy]-1-naphthamide], `CCN(CC)C(=O)c1c(OC(C)(CC)CC)ccc2ccccc12` [Example 30, N,N-diethyl 2-[(1,1-diethylethyl)oxy]-1-naphthamide] is higher in pest or weed control at 0.02 mg/pot: 18% for the first, 31% for the second.

Compared with `C=CCNC(=O)c1c(OC(C)(C)CC)ccc2ccccc12` [Example 27, N-allyl 2-[(1,1-dimethylpropyl)oxy]-1-naphthamide], `C=CCNC(=O)c1c(OC2(C)CCCC2)ccc2ccccc12` [Example 37, N-allyl 2-[(1-methyl-1-cyclopentyl)oxy]-1-naphthamide] is higher in pest or weed control at 0.02 mg/pot: 27% for the first, 28% for the second.

Same assay, conditions: Gaeumannomyces graminis, 672 h; rate 0.1 (head prints ppm, head line ends mg/pot); wheat, soil infested with Ggt, after four weeks; N = no control; read-out: In vivo(ppm) 0.1, percent disease control

First: CCCNC(=O)c1c(OC(CC)(CC)CC)ccc2ccccc12 [Example 34, N-propyl 2-[(1,1-diethylpropyl)oxy]-1-naphthamide]
Second: CCN(CC)C(=O)c1c(OC(C)(CC)CC)ccc2ccccc12 [Example 30, N,N-diethyl 2-[(1,1-diethylethyl)oxy]-1-naphthamide]
The pest or weed control at 0.1 mg/pot of the first is higher: 44% for the first, 43% for the second.

Compared with `C=CCNC(=O)c1c(OC(C)(C)CC)ccc2ccccc12` [Example 27, N-allyl 2-[(1,1-dimethylpropyl)oxy]-1-naphthamide], `C=CCNC(=O)c1c(OC2(C)CCCC2)ccc2ccccc12` [Example 37, N-allyl 2-[(1-methyl-1-cyclopentyl)oxy]-1-naphthamide] is lower in pest or weed control at 0.1 mg/pot: 75% for the first, 53% for the second.

Same assay, conditions: Gaeumannomyces graminis, 672 h; rate 0.5 (head prints ppm, head line ends mg/pot); wheat, soil infested with Ggt, after four weeks; N = no control; read-out: In vivo(ppm) 0.5, percent disease control

Going from `CCCNC(=O)c1c(OC(CC)(CC)CC)ccc2ccccc12` [Example 34, N-propyl 2-[(1,1-diethylpropyl)oxy]-1-naphthamide] to `CCN(CC)C(=O)c1c(OC(C)(CC)CC)ccc2ccccc12` [Example 30, N,N-diethyl 2-[(1,1-diethylethyl)oxy]-1-naphthamide], the pest or weed control at 0.5 mg/pot falls from 49% to 28%.

Going from `C=CCNC(=O)c1c(OC(C)(C)CC)ccc2ccccc12` [Example 27, N-allyl 2-[(1,1-dimethylpropyl)oxy]-1-naphthamide] to `C=CCNC(=O)c1c(OC2(C)CCCC2)ccc2ccccc12` [Example 37, N-allyl 2-[(1-methyl-1-cyclopentyl)oxy]-1-naphthamide], the pest or weed control at 0.5 mg/pot falls from 95% to 63%.

Test system: Ggt
Test: In vivo (8 week) seed treatment assay: Large Pot Greenhouse Take-All Assay
Design: species or system Gaeumannomyces graminis var. tritici
Conditions: seed treatment 0.125 g/kg seed; wheat, 6-inch pots, roots rated after 7-10 weeks
Procedure: An advanced 8-week seed treatment in vivo assay in soil is as follows.
Compounds are tested for control of Ggt on 'Bergen' or 'Anza' varieties of wheat grown in 6-inch round pots containing soil (equal to thirds of Metro-mix, sand, and silt-loam field soil, all steam sterilized). Seeds are treated with a solution of compound of the present invention at 10,000 ppm stock solution in acetone. 20 mg in 2 ml will treat 10 g of seed at each of 4 rates. Using a 10,000 ppm stock for each compound make the following dilutions series:
A treatment jar is rinsed 2 times with 3 ml of actone. Then 1 ml of the solution is swirled to cover the base of the jar. 10 g of seed are added to the jar and capped after which the jar is swirled and shaken until the seeds get a rapid and even coverage. After about 30-50 seconds the lid is removed as the shaking is continued. After 1 minute the jar is set down to dry. When dry, the seed are poured back into the envelope for either planting in the pots or stored until such planting. The method of planting is as follows:
The 6-inch pots are packed to their ledge with the above soil mix.
a) Treated seed is placed on the surface of the soil (packed to ledge) at the rate of 8 seeds per pot with the seeds about 2-3 inches apart. 5 pots (replicates) are planted per treatment. b) 15 ml of oat inoculum (about 4g) are measured and sprinkled evenly over the soil surface of each pot. c) The soil/seed/inoculum is covered with 180 ml of soil mix (same as above). A 150 ml beaker filled to the top edge-is about 180 ml. d) Initially each of the prepared pots is watered lightly several times to wet soil without washing out seeds. e) In cool winter months the prepared pots are left in the greenhouse at 16° - 18°C with only minimal supplemental light. In warmer months the prepared pots are put in a growth chamber set at 17°C for 3-4 weeks to establish disease, then placed in a greenhouse until harvest. The wheat is harvested, washed, and the roots are rated after 7-10 weeks. f) A % of diseased root area is assigned values using 1, 5, 10, 20, 30, 40, 50, 60, 80, or 100 %. Each pot of plants gets a single rating.

Going from `C=CCNC(=O)c1c(OC(C)(C)CC)ccc2ccccc12` [Example 27, N-allyl 2-[(1,1-dimethylpropyl)oxy]-1-naphthamide] to `C=CCNC(=O)c1c(OC2(C)CCCC2)ccc2ccccc12` [Example 37, N-allyl 2-[(1-methyl-1-cyclopentyl)oxy]-1-naphthamide], the “% control (rates are g/kg seed) 0.125” value falls from 21% to 4%.

Same assay, conditions: seed treatment 0.25 g/kg seed; wheat, 6-inch pots, roots rated after 7-10 weeks

Going from `CCCNC(=O)c1c(OC(CC)(CC)CC)ccc2ccccc12` [Example 34, N-propyl 2-[(1,1-diethylpropyl)oxy]-1-naphthamide] to `CCN(CC)C(=O)c1c(OC(C)(CC)CC)ccc2ccccc12` [Example 30, N,N-diethyl 2-[(1,1-diethylethyl)oxy]-1-naphthamide], the “% control (rates are g/kg seed) 0.25” value rises from 17% to 22%.

Going from `C=CCNC(=O)c1c(OC(C)(C)CC)ccc2ccccc12` [Example 27, N-allyl 2-[(1,1-dimethylpropyl)oxy]-1-naphthamide] to `C=CCNC(=O)c1c(OC2(C)CCCC2)ccc2ccccc12` [Example 37, N-allyl 2-[(1-methyl-1-cyclopentyl)oxy]-1-naphthamide], the “% control (rates are g/kg seed) 0.25” value falls from 21% to 4%.

Same assay, conditions: seed treatment 0.5 g/kg seed; wheat, 6-inch pots, roots rated after 7-10 weeks

`CCCNC(=O)c1c(OC(CC)(CC)CC)ccc2ccccc12` [Example 34, N-propyl 2-[(1,1-diethylpropyl)oxy]-1-naphthamide] and `CCN(CC)C(=O)c1c(OC(C)(CC)CC)ccc2ccccc12` [Example 30, N,N-diethyl 2-[(1,1-diethylethyl)oxy]-1-naphthamide] are the same in “% control (rates are g/kg seed) 0.5” value: 0% for the first, 0% for the second.

Going from `C=CCNC(=O)c1c(OC(C)(C)CC)ccc2ccccc12` [Example 27, N-allyl 2-[(1,1-dimethylpropyl)oxy]-1-naphthamide] to `C=CCNC(=O)c1c(OC2(C)CCCC2)ccc2ccccc12` [Example 37, N-allyl 2-[(1-methyl-1-cyclopentyl)oxy]-1-naphthamide], the “% control (rates are g/kg seed) 0.5” value rises from 0% to 4%.

Same assay, conditions: seed treatment 1 g/kg seed; wheat, 6-inch pots, roots rated after 7-10 weeks

Compared with `CCCNC(=O)c1c(OC(CC)(CC)CC)ccc2ccccc12` [Example 34, N-propyl 2-[(1,1-diethylpropyl)oxy]-1-naphthamide], `CCN(CC)C(=O)c1c(OC(C)(CC)CC)ccc2ccccc12` [Example 30, N,N-diethyl 2-[(1,1-diethylethyl)oxy]-1-naphthamide] is higher in “% control (rates are g/kg seed) 1 g” value: 9% for the first, 13% for the second.

Compared with `C=CCNC(=O)c1c(OC(C)(C)CC)ccc2ccccc12` [Example 27, N-allyl 2-[(1,1-dimethylpropyl)oxy]-1-naphthamide], `C=CCNC(=O)c1c(OC2(C)CCCC2)ccc2ccccc12` [Example 37, N-allyl 2-[(1-methyl-1-cyclopentyl)oxy]-1-naphthamide] is lower in “% control (rates are g/kg seed) 1 g” value: 25% for the first, 4% for the second.
